In PubChem BioAssay (NCI):
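Five compound concentrations were applied to cells in 96-well plates for 48 hours; endpoints were derived by simple linear interpolation of the resulting dose-response curve. GI50 = concentration required for 50% inhibition of growth. Definition used: TGI = concentration required for complete inhibition of growth.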 Where a SMILES comes first, the peptide text is derived from it. [ ]: non-standard residue; d: D form. The star is where a group is joined. ξ: configuration not given here. ξF = NC(Cc1ccccc1)C(=O)O; Cbz = O=C(OCc1ccccc1)*; Aib = CC(C)(N)C(=O)O

How the values were obtained:
Experiment in all cases: NCI anticancer screen, dose series, 48 h
[1] = system: MDA-MB-231 breast
[2] = system: RPMI-8226 leukemia
[3] = system: MALME-3M melanoma
[4] = system: SW-620 colon
[5] = system: TK-10 renal
[6] = system: MCF7 breast
[7] = system: A498 renal
[8] = system: HCT-116 colon
[9] = system: ACHN renal
[10] = system: UACC-62 melanoma

| Compound | TGI [1] | TGI [2] | TGI [3] | TGI [4] | TGI [5] | TGI [6] | TGI [7] | TGI [8] | TGI [9] | TGI [10] | GI50 [2] | GI50 [3] | GI50 [4] | GI50 [5] | GI50 [8] | GI50 [9] | GI50 [10] | GI50 [1] | GI50 [7] | GI50 [6] |
| --- | --- | --- | --- | --- | --- | --- | --- | --- | --- | --- | --- | --- | --- | --- | --- | --- | --- | --- | --- | --- |
| COC(=O)C(C)(C)NC(=O)C(Cc1ccccc1)NC(=O)C(C)(C)NC(=O)OCc1ccccc1 (stereo unspecified) (Cbz-[Aib]-[ξF]-[Aib]-OMe) | > 100 µM | > 100 µM | > 100 µM | > 100 µM | > 100 µM | > 100 µM | > 100 µM | > 100 µM | > 100 µM | > 100 µM | – | – | – | – | – | – | – | – | – | – |
| Nc1c(-c2ccccc2[N+](=O)[O-])nc2ccccn12 | – | > 100 µM | > 100 µM | > 100 µM | > 100 µM | – | – | > 100 µM | > 100 µM | > 100 µM | – | – | – | – | – | – | – | – | – | – |
| C(=N\OCCc1ccccc1)/c1cccnc1 | > 100 µM | > 100 µM | > 100 µM | > 100 µM | > 100 µM | > 100 µM | – | > 100 µM | > 100 µM | > 100 µM | – | – | – | – | – | – | – | – | – | – |
| Clc1ccc(-c2ccc(-c3nnc(COc4ccc(OCc5nnc(-c6ccc(-c7ccc(Cl)cc7Cl)o6)o5)c(Cl)c4)o3)o2)c(Cl)c1 | > 100 µM | > 100 µM | – | > 100 µM | > 100 µM | > 100 µM | > 100 µM | > 100 µM | > 100 µM | > 100 µM | – | – | – | – | – | – | – | – | – | – |
| CCCCOCc1cc(CN2CCN(C)CC2)c(O)c2ncccc12 | – | 26.3 µM | > 100 µM | 81.4 µM | > 100 µM | – | 78.9 µM | 87 µM | 54.2 µM | 40.6 µM | – | – | – | – | – | – | – | – | – | – |
| COc1cc(Nc2nnc3n2S(=O)(=O)c2cc(C)c(Cl)cc2S3)cc(OC)c1 | 74.5 µM | 95.7 µM | 23.1 µM | – | 81.3 µM | > 100 µM | 85.8 µM | > 100 µM | 16.7 µM | 57.6 µM | – | – | – | – | – | – | – | – | – | – |
| c1cncc(O[Si](Oc2cccnc2)(Oc2cccnc2)Oc2cccnc2)c1 | – | – | > 100 µM | > 100 µM | > 100 µM | – | – | – | – | > 100 µM | – | – | – | – | – | – | – | – | – | – |
| NCCSCc1ccccc1Cl | > 100 µM | – | > 100 µM | > 100 µM | 74 µM | – | 96.2 µM | > 100 µM | > 100 µM | > 100 µM | – | – | – | – | – | – | – | – | – | – |
| Cc1ccc(N2CCN(CCC(=O)O)CC2)cc1 | > 100 µM | > 100 µM | > 100 µM | > 100 µM | > 100 µM | > 100 µM | > 100 µM | > 100 µM | > 100 µM | > 100 µM | – | – | – | – | – | – | – | – | – | – |
| C[CH2][Ge]([CH2]C)([CH2]C)[O]C(=O)CCC(=O)[O][Ge]([CH2]C)([CH2]C)[CH2]C | – | > 100 µM | > 100 µM | > 100 µM | > 100 µM | – | – | > 100 µM | > 100 µM | > 100 µM | 0.249 µM | 79.3 µM | > 100 µM | > 100 µM | 57.3 µM | > 100 µM | > 100 µM | – | – | – |
| N=C(N)c1ccc(-c2ccc(-c3cccs3)s2)s1 | 3.13 µM | – | 3.67 µM | 3.21 µM | 2.89 µM | – | 0.846 µM | – | 3.09 µM | 3.28 µM | – | 1.71 µM | 1.63 µM | 1.48 µM | – | 1.66 µM | 1.82 µM | 1.5 µM | 0.279 µM | – |
| COc1cc(-c2n/c(=C\c3c(O)[nH]c4cc(Cl)ccc34)cc3c2=Nc2ccccc2-3)cc(OC)c1OC | 11.3 µM | > 100 µM | 9.41 µM | 54.9 µM | 5.26 µM | 13.6 µM | 27.9 µM | 13.7 µM | 22.2 µM | 14.1 µM | 67.1 µM | 2.98 µM | 4.07 µM | 2.34 µM | 3.48 µM | 4.49 µM | 3.4 µM | 3.17 µM | 7.12 µM | 2.71 µM |
| COc1ccc(/C=C2\Sc3nnc(CNc4ccc(Cl)cc4)n3N=C2c2cc(F)c(Cl)cc2Cl)cc1OC | > 100 µM | 42.2 µM | – | 36.9 µM | > 100 µM | > 100 µM | > 100 µM | > 100 µM | > 100 µM | – | – | – | – | – | – | – | – | – | – | – |
| CCOc1ccc(N=NS(=O)(=O)O)cc1 | > 100 µM | > 100 µM | > 100 µM | > 100 µM | > 100 µM | > 100 µM | > 100 µM | > 100 µM | > 100 µM | > 100 µM | – | – | – | – | – | – | – | – | – | – |
| CC(C)(CCCCC(C)(C)C1NC(=O)N1)C1NC(=O)N1 | > 10 µM | > 10 µM | > 10 µM | > 10 µM | > 10 µM | > 10 µM | > 10 µM | > 10 µM | > 10 µM | > 10 µM | – | – | – | – | – | – | – | – | – | – |
| CC(C)CC(NC(=O)C(Cc1ccccc1)NC(=O)C(Cc1c[nH]c2ccccc12)NC(=O)CNC(=O)C(N)Cc1ccc(O)cc1)C(=O)O (stereo unspecified) (H-YGWFL-OH; configuration not given here) | > 100 µM | 57.4 µM | 72.3 µM | – | > 100 µM | > 100 µM | 96 µM | 70.6 µM | > 100 µM | > 100 µM | – | – | – | – | – | – | – | – | – | – |
| CC(=O)ON1C(=O)c2cccc3cccc(c23)C1=O | > 100 µM | 53.4 µM | 45 µM | > 100 µM | 88.5 µM | > 100 µM | 71.5 µM | 41.7 µM | > 100 µM | 52.5 µM | – | – | – | – | – | – | – | – | – | – |
| O=c1c2cc(I)ccc2nc(SCc2n[nH]c(=S)o2)n1Cc1ccccc1 | 33.3 µM | > 100 µM | 34.8 µM | 39.6 µM | 37.7 µM | 31.7 µM | 34.2 µM | 29.4 µM | 28.6 µM | 25.4 µM | – | – | – | – | – | – | – | – | – | – |
| COC1=CC(=O)c2c(c(COP(=O)(N(C)CCBr)N(C)CCBr)cn2C)C1=O | 1.07 µM | 0.441 µM | 0.291 µM | 0.317 µM | 0.496 µM | 0.671 µM | 0.964 µM | – | 0.0728 µM | 0.272 µM | – | – | – | – | – | – | – | – | – | – |
| CC(C)(C)c1cc(OCc2nnc3sc(=S)[nH]n23)c(Cl)cc1OCc1nnc2sc(=S)[nH]n12 | > 100 µM | > 100 µM | 46.9 µM | > 100 µM | 99.8 µM | 31.6 µM | 88.7 µM | 50.6 µM | 76.8 µM | 32.6 µM | – | – | – | – | – | – | – | – | – | – |
| Cc1ccc(C(O)(c2ccc(C)cc2)c2ccccn2)cc1 | – | > 100 µM | > 100 µM | > 100 µM | > 100 µM | – | > 100 µM | > 100 µM | > 100 µM | > 100 µM | – | – | – | – | – | – | – | – | – | – |
